Measurements published in doi:10.1101/2025.03.27.645620v1 (biorxiv, 2025).
Where two headings read alike, the source gives them in different places. One block for each molecule: values may come before it.

What was measured:
human PBMCs = test: cells; conditions: PBMC, 24 h
murine splenocytes = test: cells; design: species or system mouse splenocytes; conditions: Mus musculus, Splenocyte, 24 h
WT-hSTING-CTT = WT-hSTING-CTT (Homo sapiens, UniProt Q86WV6, H232R); test: surface plasmon resonance; type: binding; conditions: labelled compound; biotin-tagged SB […] used
WT-hSTING-CTT, sequence (Q86WV6 139-379 H232R): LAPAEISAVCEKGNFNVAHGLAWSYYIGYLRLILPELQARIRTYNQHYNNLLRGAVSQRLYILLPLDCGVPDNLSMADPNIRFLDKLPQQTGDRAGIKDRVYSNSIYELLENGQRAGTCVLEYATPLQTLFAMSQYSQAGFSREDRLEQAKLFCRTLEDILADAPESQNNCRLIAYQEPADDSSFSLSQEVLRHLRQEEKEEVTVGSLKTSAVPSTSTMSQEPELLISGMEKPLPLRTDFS

hSTING-WT = test: cells; design: species or system THP1; conditions: Homo sapiens, THP-1, 20 h, read-out: SB 11285 EC50 (µM)
mSTING = test: cells; design: species or system THP1; conditions: Homo sapiens, THP-1, 20 h, read-out: SB 11285 EC50 (µM)
hSTING AQ = test: cells; design: species or system THP1; conditions: Homo sapiens, THP-1, 20 h, read-out: SB 11285 EC50 (µM)

Molecule: Nc1ncnc2c1ncn2[C@@H]1O[C@@H]2COP(O)(=S)O[C@@H]3[C@H](O)[C@@H](COP(O)(=S)O[C@H]2[C@H]1O)O[C@H]3n1cnc2c(N)ncnc21 (stereo partly shown) [ADU-S100]
EC50 (human PBMCs; read-out: EC50(μM), GM-CSF): 2.9 ± 0.4 µM | EC50 (human PBMCs; read-out: EC50(μM), IFN-α): 2.6 ± 2.9 µM | EC50 (human PBMCs; read-out: EC50(μM), IFN-β): > 10 µM | EC50 (human PBMCs; read-out: EC50(μM), IL-6): 2.3 ± 0.6 µM | EC50 (human PBMCs; read-out: EC50(μM), IL-10): 0.8 ± 0.6 µM | EC50 (human PBMCs; read-out: EC50(μM), IP-10): 0.4 ± 0.3 µM | EC50 (human PBMCs; read-out: EC50(μM), MIP-1α): 1.1 ± 0.6 µM | EC50 (human PBMCs; read-out: EC50(μM), MIP-1β): 1.2 ± 0.8 µM | EC50 (human PBMCs; read-out: EC50(μM), RANTES): 0.7 ± 0.5 µM | EC50 (murine splenocytes; read-out: EC50 (μM), CXCL1): 1.6 ± 0.9 µM | EC50 (murine splenocytes; read-out: EC50 (μM), IFN-α): > 10 µM | EC50 (murine splenocytes; read-out: EC50 (μM), IL-6): 1.7 ± 1.7 µM | EC50 (murine splenocytes; read-out: EC50 (μM), IL-17A): 0.3 ± 0.2 µM | EC50 (murine splenocytes; read-out: EC50 (μM), IL-18): 0.6 ± 0.4 µM | EC50 (murine splenocytes; read-out: EC50 (μM), MIP-1α): 0.5 ± 0.4 µM | EC50 (murine splenocytes; read-out: EC50 (μM), MIP-1β): 0.7 ± 0.3 µM | EC50 (murine splenocytes; read-out: EC50 (μM), RANTES): 0.1 ± 0.1 µM | EC50 (murine splenocytes; read-out: EC50 (μM), TNF-α): 1.4 ± 0.5 µM

Kd (WT-hSTING-CTT): ~122 nM
Molecule: biotin-tagged SB 11285

EC50 (murine splenocytes; read-out: SB 11285 EC50 (μM), IFN-α): 0.2 ± 0.1 µM | EC50 (murine splenocytes; read-out: SB 11285 EC50 (μM), IL-18): 0.02 ± 0.02 µM | EC50 (murine splenocytes; read-out: SB 11285 EC50 (μM), IL-31): 0.006 ± 0.003 µM | EC50 (murine splenocytes; read-out: SB 11285 EC50 (μM), IP-10): 0.03 ± 0.02 µM | EC50 (murine splenocytes; read-out: SB 11285 EC50 (μM), TNF-α): 0.04 ± 0.06 µM | EC50 (hSTING-WT): 0.008 µM | EC50 (mSTING): 0.15 µM | EC50 (hSTING AQ): 0.43 µM
Molecule: NC1CC2CCC(C1)C2O (mixture of isomers) [SB 11285]
EC50 (human PBMCs; read-out: SB 11285 EC50(μM), GM-CSF): 0.4 ± 0.3 µM | EC50 (human PBMCs; read-out: SB 11285 EC50(μM), IFN-α): 0.9 ± 0.7 µM | EC50 (human PBMCs; read-out: SB 11285 EC50(μM), IFN-β): 0.3 ± 0.2 µM | EC50 (human PBMCs; read-out: SB 11285 EC50(μM), IFN-γ): 1 ± 0.4 µM | EC50 (human PBMCs; read-out: SB 11285 EC50(μM), IL-10): 0.03 ± 0.03 µM | EC50 (human PBMCs; read-out: SB 11285 EC50(μM), IL-12p70): 0.8 ± 0.3 µM | EC50 (human PBMCs; read-out: SB 11285 EC50(μM), IL-18): 0.7 ± 0.1 µM | EC50 (human PBMCs; read-out: SB 11285 EC50(μM), MIP-1α): 0.05 ± 0.04 µM | EC50 (human PBMCs; read-out: SB 11285 EC50(μM), MIP-1β): 0.06 ± 0.09 µM | EC50 (human PBMCs; read-out: SB 11285 EC50(μM), RANTES): 0.08 ± 0.06 µM
